Test results: patent US5563155A, “Individual stereosiomers of 7-[3-(aminoalkyl)-1-pyrrolidinyl]-quinolones and naphthyridones as antibacterial agents” (Warner-Lambert Company, priority 1995, dated 1996)
In brackets after ≈: the same amount, converted by molar mass.

Legend:
Type in all cases: cell-based
Prot. rettgeri M 1771 = experiment: in vitro antibacterial activity, microtitration dilution (MIC), Prot. rettgeri M 1771; settings: Providencia rettgeri, M1771, read-out: minimum inhibiting concentration (MIC)
Text: (§1) The in vitro antibacterial activity, is obtained by the microtitration dilution method as described in Heifetz, et al., Antimicr. Agents & Chemother., 6, 124 (1974), which is incorporated herein by reference.
(§2) By use of the above methods, the following minimum inhibiting concentration values (MICs in μg/mL), PD50 's in mg/kg, no effect phototoxicity dose in mg/kg and the cytotoxicity IC50 in μg/mL were obtained for representative enantiomers of the invention and compounds of the prior art as shown in the table.

Staph. aureus UC-76 = experiment: in vitro antibacterial activity, microtitration dilution (MIC), Staph. aureus UC-76; settings: Staphylococcus aureus, UC76, read-out: minimum inhibiting concentration (MIC)
Text: as §1, §2

Esch. coli Vogel = experiment: in vitro antibacterial activity, microtitration dilution (MIC), Esch. coli Vogel; settings: Escherichia coli, read-out: minimum inhibiting concentration (MIC)
Text: as §1, §2

Strep. faecalis MGH-2 = experiment: in vitro antibacterial activity, microtitration dilution (MIC), Strep. faecalis MGH-2; settings: Enterococcus faecalis, MGH2, read-out: minimum inhibiting concentration (MIC)
Text: as §1, §2

Strep. pyogenes C-203 = experiment: in vitro antibacterial activity, microtitration dilution (MIC), Strep. pyogenes C-203; settings: Streptococcus pyogenes, C203, read-out: minimum inhibiting concentration (MIC)
Text: as §1, §2

Staph. aureus H 228 = experiment: in vitro antibacterial activity, microtitration dilution (MIC), Staph. aureus H 228; settings: Staphylococcus aureus, H228, read-out: minimum inhibiting concentration (MIC)
Text: as §1, §2

Strep. pheumoniae SV-1 = experiment: in vitro antibacterial activity, microtitration dilution (MIC), Strep. pneumoniae SV-1; settings: Streptococcus pneumoniae, SV1, read-out: minimum inhibiting concentration (MIC)
Text: as §1, §2

Pseud. aeruginosa UI-18 = experiment: in vitro antibacterial activity, microtitration dilution (MIC), Pseud. aeruginosa UI-18; settings: Pseudomonas aeruginosa, UI18, read-out: minimum inhibiting concentration (MIC)
Text: as §1, §2

Ent. cloacae MA2646 = experiment: in vitro antibacterial activity, microtitration dilution (MIC), Ent. cloacae MA2646; settings: Enterobacter cloacae, read-out: minimum inhibiting concentration (MIC)
Text: as §1, §2

Klebs. pneumoniae MGH-2 = experiment: in vitro antibacterial activity, microtitration dilution (MIC), Klebs. pneumoniae MGH-2; settings: Klebsiella pneumoniae, MGH2, read-out: minimum inhibiting concentration (MIC)
Text: as §1, §2

Row | MIC (Prot. rettgeri M 1771) [µg/mL] | MIC (Staph. aureus UC-76) [µg/mL] | MIC (Esch. coli Vogel) [µg/mL] | MIC (Strep. faecalis MGH-2) [µg/mL] | MIC (Strep. pyogenes C-203) [µg/mL] | MIC (Staph. aureus H 228) [µg/mL] | MIC (Strep. pheumoniae SV-1) [µg/mL] | MIC (Pseud. aeruginosa UI-18) [µg/mL] | MIC (Ent. cloacae MA2646) [µg/mL] | MIC (Klebs. pneumoniae MGH-2) [µg/mL] | SMILES
1 | 1.6 (≈ 3.38 µM) | 0.013 (≈ 0.0275 µM) | 0.4 (≈ 0.845 µM) | 0.1 (≈ 0.211 µM) | 0.013 (≈ 0.0275 µM) | 0.025 (≈ 0.0528 µM) | 0.013 (≈ 0.0275 µM) | 3.1 (≈ 6.55 µM) | 0.4 (≈ 0.845 µM) | 0.8 (≈ 1.69 µM) | CCN[C@@H](C)[C@@H]1CCN(c2cc3c(c(C)c2F)c(=O)c(C(=O)O)cn3-c2ccc(F)cc2F)C1 [Example 54, 3R,1S-7-[3-(1-N-ethylaminoethyl)-1-pyrrolidinyl]-1-(2,4-difluorophenyl)-6-fluoro-1,4-dihydro-5-methyl-4-oxo-3-quinolinecarboxylic acid]
2 | 0.8 (≈ 1.99 µM) | 0.025 (≈ 0.0621 µM) | 0.1 (≈ 0.248 µM) | 0.05 (≈ 0.124 µM) | 0.013 (≈ 0.0323 µM) | 0.05 (≈ 0.124 µM) | 0.013 (≈ 0.0323 µM) | 1.6 (≈ 3.98 µM) | 0.1 (≈ 0.248 µM) | 0.2 (≈ 0.497 µM) | CCN[C@@H](C)[C@@H]1CCN(c2cc3c(c(N)c2F)c(=O)c(C(=O)O)cn3C2CC2)C1 [Example 55, 3R,1S-5-amino-7-[3-(1-N-ethylaminoethyl)-1-pyrrolidinyl]-1-cyclopropyl-6-fluoro-1,4-dihydro-4-oxo-3-quinolinecarboxylic acid]
3 | 0.4 (≈ 0.956 µM) | 0.006 (≈ 0.0143 µM) | 0.1 (≈ 0.239 µM) | 0.025 (≈ 0.0597 µM) | 0.006 (≈ 0.0143 µM) | 0.013 (≈ 0.0311 µM) | 0.006 (≈ 0.0143 µM) | 1.6 (≈ 3.82 µM) | 0.2 (≈ 0.478 µM) | 0.2 (≈ 0.478 µM) | CN[C@@H](C)[C@@H]1CCN(c2c(F)c(N)c3c(=O)c(C(=O)O)cn(C4CC4)c3c2OC)C1 [Example 56, 3R,1S-5-amino-1-cyclopropyl-6-fluoro-1,4-dihydro-8-methoxy-7-[3-(1-N-methylaminoethyl)-1-pyrrolidinyl]-4-oxo-3-quinolinecarboxylic acid]
4 | 0.025 (≈ 0.0637 µM) | 0.003 (≈ 0.00765 µM) | 0.013 (≈ 0.0331 µM) | 0.003 (≈ 0.00765 µM) | 0.003 (≈ 0.00765 µM) | 0.003 (≈ 0.00765 µM) | 0.003 (≈ 0.00765 µM) | 0.4 (≈ 1.02 µM) | 0.013 (≈ 0.0331 µM) | 0.013 (≈ 0.0331 µM) | C[C@H](N)[C@@H]1CCN(c2c(F)c(N)c3c(=O)c(C(=O)O)cn(C4CC4)c3c2F)C1 [Example 58, 3R,1S-5-amino-7-[3-(1-aminoethyl)-1-pyrrolidinyl]-1-cyclopropyl-6,8-difluoro-1,4-dihydro-4-oxo-3-quinolinecarboxylic acid]
5 | 0.1 (≈ 0.247 µM) | 0.003 (≈ 0.00742 µM) | 0.05 (≈ 0.124 µM) | 0.006 (≈ 0.0148 µM) | 0.003 (≈ 0.00742 µM) | 0.006 (≈ 0.0148 µM) | 0.003 (≈ 0.00742 µM) | 0.8 (≈ 1.98 µM) | 0.05 (≈ 0.124 µM) | 0.1 (≈ 0.247 µM) | COc1c(N2CC[C@@H]([C@H](C)N)C2)c(F)c(N)c2c(=O)c(C(=O)O)cn(C3CC3)c12 [Example 59, 3R,1S-5-amino-7-[3-(1-aminoethyl)-1-pyrrolidinyl]-1-cyclopropyl-6-fluoro-1,4-dihydro-8-methoxy-4-oxo-3-quinolinecarboxylic acid]
6 | 0.4 (≈ 0.936 µM) | 0.006 (≈ 0.014 µM) | 0.2 (≈ 0.468 µM) | 0.025 (≈ 0.0585 µM) | 0.006 (≈ 0.014 µM) | 0.013 (≈ 0.0304 µM) | 0.006 (≈ 0.014 µM) | 1.6 (≈ 3.74 µM) | 0.2 (≈ 0.468 µM) | 0.2 (≈ 0.468 µM) | C[C@H](N)[C@@H]1CCN(c2c(F)cc3c(=O)c(C(=O)O)cn(C4CC4)c3c2C(F)(F)F)C1 [Example 60, 3R,1S-7-[3-(1-aminoethyl)-1-pyrrolidinyl]-1-cyclopropyl-6-fluoro-1,4-dihydro-4-oxo-8-trifluoromethyl-3-quinolinecarboxylic acid]
7 | 0.4 (≈ 0.958 µM) | ≤ 0.003 | 0.1 (≈ 0.24 µM) | 0.025 (≈ 0.0599 µM) | ≤ 0.003 | 0.006 (≈ 0.0144 µM) | ≤ 0.003 | 1.6 (≈ 3.83 µM) | 0.1 (≈ 0.24 µM) | 0.2 (≈ 0.479 µM) | CN[C@@H](C)[C@@H]1CCN(c2c(F)c(C)c3c(=O)c(C(=O)O)cn(C4CC4)c3c2OC)C1 [Example 61, 3R,1S-1-cyclopropyl-6-fluoro-7-[3-(1-N-methylaminoethyl)-1-pyrrolidinyl]-5-methyl-8-methoxy-1,4-dihydro-4-oxo-3-quinolinecarboxylic acid]
